In ChEMBL document CHEMBL4229535, “Design, synthesis and evaluation of oxime-functionalized nitrofuranylamides as novel antitubercular agents” (2018):
In brackets after ≈: the same amount, converted by molar mass.

How the values were obtained:
Assay type in all cases: functional
[1] = test system: Mycobacterium tuberculosis; experiment: Antimycobacterial activity against multidrug-resistant Mycobacterium tuberculosis isolate 16833 after 7 days by microplate alamar blue assay; details: isolate 16833, 168 h
[2] = test system: Mycobacterium tuberculosis; experiment: Antimycobacterial activity against multidrug-resistant Mycobacterium tuberculosis isolate 16995 after 7 days by microplate alamar blue assay; details: isolate 16995, 168 h
[3] = Resistance index, ratio of MIC>90 for multidrug-resistant Mycobacterium tuberculosis clinical isolate 16833 to MIC>90 for Mycobacterium tuberculosis H37Rv ATCC 27294
[4] = Resistance index, ratio of MIC>90 for multidrug-resistant Mycobacterium tuberculosis clinical isolate 16995 to MIC>90 for Mycobacterium tuberculosis H37Rv ATCC 27294

Row | SMILES | MIC90 [1] | MIC90 [2] | Ratio [3] | Ratio [4]
1 | CO[C@H]1/C=C/O[C@@]2(C)Oc3c(C)c(O)c4c(O)c(c(/C=N/N5CCN(C)CC5)c(O)c4c3C2=O)NC(=O)/C(C)=C\C=C\[C@H](C)[C@H](O)[C@@H](C)[C@@H](O)[C@@H](C)[C@H](OC(C)=O)[C@@H]1C [RIFAMPIN] | > 40 µg/mL | > 40 µg/mL |  | 
2 | O=C(c1ccc([N+](=O)[O-])o1)N1CCC(=NOCc2ccccc2)CC1 | 0.482 µg/mL (≈ 1.4 µM) | 0.426 µg/mL (≈ 1.24 µM) | 1 | 1
3 | CO/N=C1\CCN(C(=O)c2ccc([N+](=O)[O-])o2)C1 | 1.93 µg/mL (≈ 7.61 µM) | 1.91 µg/mL (≈ 7.54 µM) | 1 | 1
4 | O=C(c1ccc([N+](=O)[O-])o1)N1CCc2ccccc21 | > 4 µg/mL | > 4 µg/mL |  | 
5 | NNC(=O)c1ccncc1 [ISONIAZID] | > 40 µg/mL | > 40 µg/mL |  | 
6 | O=C(c1ccc([N+](=O)[O-])o1)N1CC/C(=N\OCc2ccccc2)C1 | 0.207 µg/mL (≈ 0.629 µM) | 0.38 µg/mL (≈ 1.15 µM) | 1 | 1
7 | CON=C1CCN(C(=O)c2ccc([N+](=O)[O-])o2)CC1 | 1.91 µg/mL (≈ 7.16 µM) | 1.94 µg/mL (≈ 7.24 µM) | 1 | 1
